Assay results reported in patent US20250090477A1, “TRANSDERMAL PATCH PROVIDING IMPROVED PERMEABILITY AND COMPOSITION” (HydraPatch Inc., priority 2019, published 2025).

Assay: effect of including leucine in the patch formula on appetite levels
Type: in vivo
Settings: inclusion of leucine in the formula of the adhesive matrix; found experimentally, no method or data given
Text: In an exemplary embodiment, adhesive matrix 130 may further include an anti-inflammatory. While dimethyl sulfoxide and menthol may in and of themselves act as anti-inflammatories, additional ingredients acting as dedicated anti-inflammatories may be added. For the purposes of this specification, “anti-inflammatory” is used to mean any medication, compound, or ingredient recognized by the FDA as useful for anti-inflammatory purposes. Yet further, adhesive matrix 130 may include amino acids. Leucine is an exemplary amino acid which may be incorporated into the formula. Leucine may function in the patch to synthesize sterols, and may also act to regulate blood pressure, energy levels, and hormone secretion. […] Adhesive matrix 130 may further comprises glycerin. Glycerin may act as a plasticizer and humectant to preserve the flexibility and formulaic integrity of adhesive matrix 130, and may also provide additional benefits of relieving skin irritation and reducing interference with skin oils when transdermal patch 100 is placed in contact with skin.

**Q.** Which appetite levels does the source give for CC(C)C[C@H](N)C(=O)O [leucine, Leucine] here?
**A.** The appetite levels was “reduce appetite levels”.
